According to US10219516B2, “Molecules having pesticidal utility, and intermediates, compositions, and processes, related thereto” (priority 2015, dated 2019):
Where two headings read alike, the source gives them in different places.

Tests used:
Format in all cases: in vivo
[1] = system: Beet Armyworm (Spodoptera exigua, LAPHEG); assay: Bioassay on Beet Armyworm (BAW), 128-well diet tray assay
Summary of the method: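 Second-instar larvae, one to five per well, placed on artificial diet surface-treated with 50 μg/cm^2 compound applied in 90:10 acetone-water and dried. Held 5–7 days at 25° C., 14:10 light-dark. Percent mortality recorded per well and averaged over eight wells.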

[2] = system: Cabbage Looper (Trichoplusia ni, TRIPNI); assay: Bioassay on Cabbage Looper (CL), 128-well diet tray assay; details: Trichoplusia ni
Summary of the method: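 Second-instar larvae, one to five per well, placed on artificial diet treated with 50 μg/cm^2 test molecule in 90:10 acetone-water, dried before infestation. Held 5–7 days at 25° C, 14:10 light-dark; percent mortality averaged over eight wells.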

[3] = system: Yellow Fever Mosquito (Aedes aegypti, AEDSAE); assay: Bioassay on Yellow Fever Mosquito (YFM), 96-well plate larval assay; details: for YFM (Biological Results, rating): Species YFM (Yellow Fever Mosquito); for YFM rating: Yellow Fever Mosquito, 96-well plate larval assay
Summary of the method: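 Compound stocks at 4000 ppm in DMSO were diluted with 90:10 water/acetone, and 15 μL aliquots were dispensed into six replicate plates. About 1-day-old larvae in liver-powder water were added per well. Plates were covered and held at room temperature for 3 days before each well was scored for mortality.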

[4] = Species BAW (Beet Armyworm), read-out: BAW (Biological Results, rating)
[5] = Species CL (Cabbage Looper), read-out: CL (Biological Results, rating)
[6] = Beet Armyworm, 128-well diet tray assay, read-out: BAW rating
[7] = Cabbage Looper, 128-well diet tray assay, read-out: CL rating

SMILES: C=Cc1cc([C@H]2[C@H](C(=O)Nc3ccc(Cl)c(C(=O)Nc4ccc(F)cc4)c3)C2(Cl)Cl)ccc1Cl (relative stereo) [F349, 2-Chloro-5-(trans-2,2-dichloro-3-(4-chloro-3-vinylphenyl)cyclopropane-1-carboxamido)-N-(4-fluorophenyl)benzamide]
- pest or weed control at 50 µg/cm2 [1, 4]: 50 to 100%
- pest or weed control at 50 µg/cm2 [2, 5]: 50 to 100%
- YFM (Biological Results, rating) [3]: A (80-100)

SMILES: O=C(Nc1ccc(NC(=O)C2CC2(F)F)cc1)c1cc(NC(=O)[C@H]2[C@H](c3cc(Cl)cc(Cl)c3)C2(Cl)Cl)ccc1Cl (relative stereo) [PF108, trans-2-chloro-5-(2,2-dichloro-3-(3,5-dichlorophenyl)cyclopropane-1-carboxamido)-N-(4-(2,2-difluorocyclopropane-1-carboxamido)phenyl)benzamide]
- pest or weed control at 50 µg/cm2 [1, 6]: 50 to 100%
- pest or weed control at 50 µg/cm2 [2, 7]: 50 to 100%
- YFM rating [3]: A (80-100)

SMILES: CN(C(=O)c1cc(NC(=O)[C@H]2[C@H](c3cc(Cl)cc(Cl)c3)C2(Cl)Cl)ccc1F)c1ccccc1 (relative stereo) [F66, trans-5-(2,2-Dichloro-3-(3,5-dichlorophenyl)cyclopropane-1-carboxamido)-2-fluoro-N-methyl-N-phenylbenzamide]
- pest or weed control at 50 µg/cm2 [1, 4]: 50 to 100%
- pest or weed control at 50 µg/cm2 [2, 5]: 50 to 100%
- YFM (Biological Results, rating) [3]: A (80-100)

SMILES: Cc1cc(N)ccc1NC(=O)c1cc(NC(=O)[C@H]2[C@H](c3ccc(Cl)c(Cl)c3)C2(Cl)Cl)ccc1Cl (relative stereo) [F574, trans-N-(4-Amino-2-methylphenyl)-2-chloro-5-(2,2-dichloro-3-(3,4-dichlorophenyl)cyclopropane-1-carboxamido)benzamide]
- pest or weed control at 50 µg/cm2 [1, 6]: 50 to 100%
- pest or weed control at 50 µg/cm2 [2, 7]: 50 to 100%
- YFM rating [3]: A (80-100)

SMILES: O=C(Nc1ccnc(Cl)c1)c1cc(NC(=O)[C@H]2[C@H](c3cc(Cl)cc(Cl)c3)C2(Cl)Cl)ccc1Cl [F368, 2-Chloro-N-(2-chloropyridin-4-yl)-5-((1R,3R)-2,2-dichloro-3-(3,5-dichlorophenyl)cyclopropane-1-carboxamido)benzamide]
- pest or weed control at 50 µg/cm2 [1, 4]: 50 to 100%
- pest or weed control at 50 µg/cm2 [2, 5]: 50 to 100%
- YFM (Biological Results, rating) [3]: A (80-100)

SMILES: C=C(F)c1cc([C@H]2[C@H](C(=O)Nc3ccc(Cl)c(C(=O)Nc4ccc(F)cc4)c3)C2(Cl)Cl)ccc1Cl (relative stereo) [F384, 2-Chloro-5-(trans-2,2-dichloro-3-(4-chloro-3-(1-fluorovinyl)phenyl)cyclopropane-1-carboxamido)-N-(4-fluorophenyl)benzamide]
- pest or weed control at 50 µg/cm2 [1, 6]: 50 to 100%
- pest or weed control at 50 µg/cm2 [2, 7]: 50 to 100%
- YFM rating [3]: A (80-100)

SMILES: Cc1cc(N)ccc1NC(=O)c1cc(NC(=O)[C@H]2[C@H](c3ccc(Br)c(Cl)c3)C2(Cl)Cl)ccc1Cl (relative stereo) [F324, N-(4-Amino-2-methylphenyl)-5-(trans-3-(4-bromo-3-chlorophenyl)-2,2-dichlorocyclopropane-1-carboxamido)-2-chlorobenzamide]
- pest or weed control at 50 µg/cm2 [1, 4]: 50 to 100%
- pest or weed control at 50 µg/cm2 [2, 5]: 50 to 100%
- YFM (Biological Results, rating) [3]: A (80-100)

SMILES: O=C(Nc1ccc(F)cc1F)c1cc(NC(=O)[C@H]2[C@H](c3ccc(Br)c(F)c3)C2(Cl)Cl)ccc1Cl (relative stereo) [F364, 5-(trans)-(3-(4-Bromo-3-fluorophenyl)-2,2-dichlorocyclopropane-1-carboxamido)-2-chloro-N-(2,4-difluorophenyl)benzamide]
- pest or weed control at 50 µg/cm2 [1, 4]: 50 to 100%
- pest or weed control at 50 µg/cm2 [2, 5]: 50 to 100%
- YFM (Biological Results, rating) [3]: A (80-100)

SMILES: O=C(Nc1ccc(F)cc1F)c1cc(NC(=O)[C@H]2[C@H](c3ccc(C(F)(F)F)c(Cl)c3)C2(Cl)Cl)ccc1Cl (relative stereo) [F367, 2-Chloro-5-(trans)-(2,2-dichloro-3-(3-chloro-4-(trifluoromethyl)phenyl)cyclopropane-1-carboxamido)-N-(2,4-difluorophenyl)benzamide]
- pest or weed control at 50 µg/cm2 [1, 4]: 50 to 100%
- pest or weed control at 50 µg/cm2 [2, 5]: 50 to 100%
- YFM (Biological Results, rating) [3]: A (80-100)

SMILES: O=C(Nc1ncc(F)cc1F)c1cc(NC(=O)[C@H]2[C@H](c3ccc(Cl)c(C(F)F)c3)C2(Cl)Cl)ccc1Cl (relative stereo) [F585, 2-Chloro-5-(trans-2,2-dichloro-3-(4-chloro-3-(difluoromethyl)phenyl)cyclopropane-1-carboxamido)-N-(3,5-difluoropyridin-2-yl)benzamide]
- pest or weed control at 50 µg/cm2 [1, 6]: 50 to 100%
- pest or weed control at 50 µg/cm2 [2, 7]: 50 to 100%
- YFM rating [3]: A (80-100)

SMILES: CN1C(=O)Cc2cc(NC(=O)c3cc(NC(=O)[C@H]4[C@H](c5cc(Cl)cc(Cl)c5)C4(Cl)Cl)ccc3Cl)ccc21 (relative stereo) [F459, 2-Chloro-5-(trans)-(2,2-dichloro-3-(3,5-dichlorophenyl)cyclopropane-1-carboxamido)-N-(1-methyl-2-oxoindolin-5-yl)benzamide]
- pest or weed control at 50 µg/cm2 [1, 6]: 50 to 100%
- pest or weed control at 50 µg/cm2 [2, 7]: 50 to 100%
- YFM rating [3]: A (80-100)

SMILES: C=C(F)c1ccc([C@H]2[C@H](C(=O)Nc3ccc(Cl)c(C(=O)Nc4ccc(F)cc4F)c3)C2(Cl)Cl)cc1Cl (relative stereo) [F383, 2-Chloro-5-(trans-2,2-dichloro-3-(3-chloro-4-(1-fluorovinyl)phenyl)cyclopropane-1-carboxamido)-N-(2,4-difluorophenyl)benzamide]
- pest or weed control at 50 µg/cm2 [1, 6]: 50 to 100%
- pest or weed control at 50 µg/cm2 [2, 7]: 50 to 100%
- YFM rating [3]: A (80-100)

SMILES: CNc1ccc(NC(=O)c2cc(NC(=O)[C@H]3[C@H](c4cc(Cl)cc(Cl)c4)C3(Cl)Cl)ccc2Cl)c(F)c1 (relative stereo) [F177, trans-2-Chloro-5-(2,2-dichloro-3-(3,5-dichlorophenyl)cyclopropane-1-carboxamido)-N-(2-fluoro-4-(methylamino)phenyl)benzamide]
- pest or weed control at 50 µg/cm2 [1, 4]: 50 to 100%
- pest or weed control at 50 µg/cm2 [2, 5]: 50 to 100%
- YFM (Biological Results, rating) [3]: A (80-100)

SMILES: O=C(Nc1ccc(F)cc1F)c1cc(NC(=O)[C@@H]2[C@@H](c3cc(Cl)c(Cl)c(Cl)c3)C2(Cl)Cl)ccc1Cl [F282, 2-Chloro-5-((1S,3S)-2,2-dichloro-3-(3,4,5-trichlorophenyl)cyclopropane-1-carboxamido)-N-(2,4-difluorophenyl)benzamide]
- pest or weed control at 50 µg/cm2 [1, 4]: 50 to 100%
- pest or weed control at 50 µg/cm2 [2, 5]: 50 to 100%
- YFM (Biological Results, rating) [3]: A (80-100)

SMILES: COc1ccc(NC(=O)c2cc(NC(=O)[C@H]3[C@H](c4cc(Cl)cc(Cl)c4)C3(Cl)Cl)ccc2Cl)c(Cl)n1 (relative stereo) [F552, 2-Chloro-N-(2-chloro-6-methoxypyridin-3-yl)-5-(trans-2,2-dichloro-3-(3,5-dichlorophenyl)cyclopropane-1-carboxamido)benzamide]
- pest or weed control at 50 µg/cm2 [1, 6]: 50 to 100%
- pest or weed control at 50 µg/cm2 [2, 7]: 50 to 100%
- YFM rating [3]: A (80-100)

SMILES: O=C(Nc1ccc(F)cc1)c1cc(NC(=O)[C@@H]2[C@@H](c3ccc(Cl)c(Cl)c3)C2(Cl)Cl)ccc1Cl [F208, 2-Chloro-5-((1S,3S)-2,2-dichloro-3-(3,4-dichlorophenyl)cyclopropane-1-carboxamido)-N-(4-fluorophenyl)benzamide]
- pest or weed control at 50 µg/cm2 [1, 4]: 50 to 100%
- pest or weed control at 50 µg/cm2 [2, 5]: 50 to 100%
- YFM (Biological Results, rating) [3]: A (80-100)

SMILES: Cc1cc(F)ccc1N(C)C(=O)c1cc(NC(=O)[C@H]2[C@H](c3cc(Cl)cc(Cl)c3)C2(Cl)Cl)ccc1Cl (relative stereo) [PF49, trans-2-Chloro-5-(2,2-dichloro-3-(3,5-dichlorophenyl)cyclopropane-1-carboxamido)-N-(4-fluoro-2-methylphenyl)-N-methylbenzamide]
- pest or weed control at 50 µg/cm2 [1, 6]: 50 to 100%
- pest or weed control at 50 µg/cm2 [2, 7]: 50 to 100%
- YFM rating [3]: B (More than 0-Less than 80)

SMILES: C=Cc1ccc([C@H]2[C@H](C(=O)Nc3ccc(Cl)c(C(=O)Nc4ccc(F)cc4F)c3)C2(Cl)Cl)cc1C(F)(F)F (relative stereo) [F391, 2-Chloro-5-(trans-2,2-dichloro-3-(3-(trifluoromethyl)-4-vinylphenyl)cyclopropane-1-carboxamido)-N-(2,4-difluorophenyl)benzamide]
- pest or weed control at 50 µg/cm2 [1, 6]: 50 to 100%
- pest or weed control at 50 µg/cm2 [2, 7]: 50 to 100%
- YFM rating [3]: A (80-100)

SMILES: N#Cc1ccccc1NC(=O)c1cc(NC(=O)[C@H]2[C@H](c3cc(Cl)cc(Cl)c3)C2(Cl)Cl)ccc1Cl (relative stereo) [PF72, trans-2-Chloro-N-(2-cyanophenyl)-5-(2,2-dichloro-3-(3,5-dichlorophenyl)cyclopropane-1-carboxamido)benzamide]
- pest or weed control at 50 µg/cm2 [1, 6]: 50 to 100%
- pest or weed control at 50 µg/cm2 [2, 7]: 50 to 100%
- YFM rating [3]: A (80-100)

SMILES: N#Cc1cc(Cl)cc([C@H]2[C@H](C(=O)Nc3ccc(Cl)c(C(=O)Nc4ncc(F)cc4F)c3)C2(Cl)Cl)c1 (relative stereo) [F342, trans-2-Chloro-5-(2,2-dichloro-3-(3-chloro-5-cyanophenyl)cyclopropane-1-carboxamido)-N-(3,5-difluoropyridin-2-yl)benzamide]
- pest or weed control at 50 µg/cm2 [1, 4]: 50 to 100%
- pest or weed control at 50 µg/cm2 [2, 5]: 50 to 100%
- YFM (Biological Results, rating) [3]: A (80-100)

SMILES: Cc1cc(NC(=O)c2cc(NC(=O)[C@H]3[C@H](c4cc(Cl)cc(Cl)c4)C3(Cl)Cl)ccc2Cl)ccc1Cl (relative stereo) [PF113, trans-2-Chloro-N-(4-chloro-3-methylphenyl)-5-(2,2-dichloro-3-(3,5-dichlorophenyl)cyclopropane-1-carboxamido)benzamide]
- pest or weed control at 50 µg/cm2 [1, 6]: 50 to 100%
- pest or weed control at 50 µg/cm2 [2, 7]: 50 to 100%
- YFM rating [3]: A (80-100)
